This is an account of results in US20240180878A1, “AMIDE DERIVATIVES OF BUTYRIC ACID FOR USE IN THE TREATMENT OR PREVENTION OF SARS-COV-2 INFECTION” (RHEA INNOVATIONS S.R.L., priority 2021, published 2024).

Experiment [1] has as its system SARS-CoV-2 wild-type strain. Format: cell-based. The conditions noted are these: Caco-2 pretreated with 2 mM FBA for 24 h, then 1 MOI wild-type SARS-CoV-2 for 72 h.
The test system of another experiment is interleukin (IL)-15. Nature of the experiment: Small intestinal biopsy organ culture, qRT-PCR gene expression. Format: cell-based. Conditions: human small intestine biopsies, 2 mM FBA vs medium alone.
Experiment [2] relates to TMPRSS2. The experiment is described as follows: SARS-CoV-2 infection model in Caco-2 cells, gene expression. Format: cell-based, human. The conditions noted are these: Caco-2 pretreated with 2 mM FBA for 24 h, then 1 MOI wild-type SARS-CoV-2 for 72 h. On the procedure:
(§1) The SARS-CoV-2 infection was performed on Caco-2, at 15 days post-confluence, using SARS-CoV-2 wild-type strain. Before the infection, cells were incubated with 2 mM of FBA for 24 h at 37° C. 1 MOI of SARS-CoV-2 was added to the Caco-2 monolayer for 72 h. Then, SARS-CoV-2 inoculum was removed, the cells were washed three times with PBS 1× and were harvested for RNA, proteins extraction and for fluorescence microscopy analysis.
(§2) RNA samples were extracted, processed and analyzed as described above. Western blotting was performed on the total protein extracts of infected Caco-2 cells pretreated with FBA. For the total protein fraction, the harvested cells were washed in cold phosphate-buffered saline (PBS) and lysed in protein lysis buffer (RIPA). Protein concentrations in cell extracts were determined using the Bradford assay (BioRad, Milan, Italy). Thirty microgram total lysates were loaded onto 10% SDS-PAGE and then transferred to nitrocellulose membranes (ImmobilonR-Transfer Membrane, Tullagreen, Carrigtwohill, Co). The membranes were blocked with 5% non-fat milk in PBS, pH 7.6, 0.2% Tween 20 (PanReac AppliChem) and probed overnight at 4° C. with the specific primary antibodies for ACE2 (1:2000; Abcam). After washing in PBS, pH 7.6, 0.2% Tween 20, the membranes were incubated with a horseradish peroxidase-conjugated goat anti-rabbit antibody (1:2000; Abcam). The immunoblots were visualized using ECL detection kits, with enhanced chemiluminescence (Pierce, Rockford, IL, USA). A mouse β-actin antibody (1:5000; Elabscience) was used as the control for equal loading of total lysates.

Experiment [3] concerns MCP-1. Described as above. It counts as cell-based, human. The conditions noted are these: Caco-2 pretreated with 2 mM FBA for 24 h, then 1 MOI wild-type SARS-CoV-2 for 72 h. How it is done:
as §1, §2

Another experiment relates to CXCL1. The description is as above. Format: cell-based, human. Conditions: Caco-2 pretreated with 2 mM FBA for 24 h, then 1 MOI wild-type SARS-CoV-2 for 72 h. On the procedure:
as §1, §2

For experiment [4], the system named is TNF-α. Described as above. Conditions: Caco-2 pretreated with 2 mM FBA for 24 h, then 1 MOI wild-type SARS-CoV-2 for 72 h. It counts as cell-based, human. On the procedure: as §1, §2
A further experiment concerns VEGFβ. Described as above. Conditions: Caco-2 pretreated with 2 mM FBA for 24 h, then 1 MOI wild-type SARS-CoV-2 for 72 h. Format: cell-based, human. On the procedure:
as §1, §2

Experiment [5] relates to TNF-α. Nature of the experiment: Human respiratory epithelial cell line Calu3, qRT-PCR gene expression. Format: cell-based. Conditions: Calu3 cells, 2 mM FBA, 24 h of incubation.
In experiment [6] the test system is IL-15. Described as above. Format: cell-based. The conditions noted are these: Calu3 cells, 2 mM FBA, 24 h of incubation.
Experiment [7] has as its system ACE2. The experiment is described as follows: Small intestinal biopsy organ culture, qRT-PCR gene expression. Conditions: human small intestine biopsies, 2 mM FBA for 24 h vs medium alone. It counts as cell-based.
Experiment [8] concerns TMPRSS2. Nature of the experiment: Human enterocytes cell line (Caco-2), qRT-PCR gene expression. It counts as cell-based. Conditions: Caco-2 cells, 2 mM FBA (maximal effective dose), 24 h of incubation.
For the next experiment, the system named is IL-1β. The experiment is described as follows: SARS-CoV-2 infection model in Caco-2 cells, gene expression. Format: cell-based, human. The conditions noted are these: Caco-2 pretreated with 2 mM FBA for 24 h, then 1 MOI wild-type SARS-CoV-2 for 72 h.
Experiment [9] has as its system TNF-α. Nature of the experiment: Human enterocytes cell line (Caco-2), qRT-PCR gene expression. It counts as cell-based. The conditions noted are these: Caco-2 cells, 2 mM FBA (maximal effective dose), 24 h of incubation.
Experiment [10] relates to MCP-1. Nature of the experiment: Human respiratory epithelial cell line Calu3, qRT-PCR gene expression. It counts as cell-based. The conditions noted are these: Calu3 cells, 2 mM FBA, 24 h of incubation.
In experiment [11] the test system is ACE2. Described as above. Format: cell-based. The conditions noted are these: Calu3 cells, 2 mM FBA, 24 h of incubation.
Experiment [12] has as its system monocyte chemoattractant protein-1 (MCP-1). The experiment is described as follows: Small intestinal biopsy organ culture, qRT-PCR gene expression. It counts as cell-based. Conditions: human small intestine biopsies, 2 mM FBA vs medium alone.
Experiment [13] concerns tumor necrosis factor-alpha (TNF-α). The description is as above. It counts as cell-based. The conditions noted are these: human small intestine biopsies, 2 mM FBA vs medium alone.
Experiment [14] relates to IL-15. Nature of the experiment: Human enterocytes cell line (Caco-2), qRT-PCR gene expression. The conditions noted are these: Caco-2 cells, 2 mM FBA (maximal effective dose), 24 h of incubation. Format: cell-based.
Experiment [15] has as its system ACE2. The experiment is described as follows: SARS-CoV-2 infection model in Caco-2 cells, expression (qRT-PCR, Western blotting). Format: cell-based, human. Conditions: Caco-2 pretreated with 2 mM FBA for 24 h, then 1 MOI wild-type SARS-CoV-2 for 72 h. How it is done: as §1
RNA samples were extracted, processed and analyzed as described above. Western blotting was performed on the total protein extracts of infected Caco-2 cells pretreated with FBA. For the total protein fraction, the harvested cells were washed in cold phosphate-buffered saline (PBS) and lysed in protein lysis buffer (RIPA). Protein concentrations in cell extracts were determined using the Bradford assay (BioRad, Milan, Italy). Thirty microgram total lysates were loaded onto 10% SDS-PAGE and then transferred to nitrocellulose membranes (ImmobilonR-Transfer Membrane, Tullagreen, Carrigtwohill, Co). […]
Western blotting was performed on the total protein extracts of infected Caco-2 cells pretreated with FBA. […] Protein concentrations in cell extracts were determined using the Bradford assay (BioRad, Milan, Italy). […]

Experiment [16] concerns TMPRSS2. Nature of the experiment: Human respiratory epithelial cell line Calu3, qRT-PCR gene expression. Format: cell-based. The conditions noted are these: Calu3 cells, 2 mM FBA, 24 h of incubation.
Experiment [17] has as its system TMPRSS2. The experiment is described as follows: Small intestinal biopsy organ culture, qRT-PCR gene expression. It counts as cell-based. Conditions: human small intestine biopsies, 2 mM FBA for 24 h vs medium alone.
Experiment [18] concerns ACE2. Nature of the experiment: Human enterocytes cell line (Caco-2), qRT-PCR gene expression. It counts as cell-based. The conditions noted are these: Caco-2 cells, 2 mM FBA (maximal effective dose), 24 h of incubation.
The test system of experiment [19] is MCP-1. The experiment is described as above. Conditions: Caco-2 cells, 2 mM FBA (maximal effective dose), 24 h of incubation. It counts as cell-based.

In the case of `CCCC(=O)NC(Cc1ccccc1)C(N)=O` (centres unmarked) [FBA, N-(1-carbamoyl-2-phenyl-ethyl) butyramide], the virus entry entry in experiment [1] was “inhibit”. Also, the “expression of interleukin (IL)-15” value with interleukin (IL)-15 is reported as “significant reduction”. In addition, the TMPRSS2 expression entry in the experiment with TMPRSS2 [2] is listed as “inhibit”; in the experiment with TMPRSS2 [8], “significantly reduce”. Besides, the “expression of MCP-1” value was “inhibit” in the experiment with MCP-1 [3], “downregulate” in the experiment on MCP-1 [10] and “significant reduction” in [12]. Moreover, the “expression of CXCL1” value in the experiment with CXCL1 is on record as “inhibit”. Further, the “expression of TNF-α” value with TNF-α [4] is reported as “inhibit”; in the experiment on TNF-α [5], “downregulate”; in experiment [13], “significant reduction”. For the same molecule, the “expression of VEGFβ” value in the experiment on VEGFβ is “inhibit”. Also, the “expression of IL-15” value in the experiment with IL-15 [6] is given as “downregulate”. Besides, the “expression of ACE2” value is on record as “significantly decreased” in the experiment on ACE2 [7] and “downregulate” in the experiment with ACE2 [11]. Moreover, the “expression of IL-1β” value in the experiment with IL-1β is given as “inhibit”. Further, in the experiment with TNF-α [9], the TNF-α expression entry was “significantly reduce”. Further, in the experiment on IL-15 [14], the IL-15 expression result was “significantly reduce”. Besides, the ACE2 expression entry is given as “inhibit” with ACE2 [15] and “significantly reduce” in the experiment on ACE2 [18]. Also, the “expression of TMPRSS2” value with TMPRSS2 [16] is listed as “downregulate”; in the experiment with TMPRSS2 [17] it was “significantly decreased”. Also, the MCP-1 expression result with MCP-1 [19] was “significantly reduce”.
